{
  "source": "patent US20060035209A1",
  "about": "“Screening method” (priority 2002, published 2006)",
  "type_in_all_cases": "in vivo, rat",
  "key": {"TSC-22 mRNA": {"test_system": "TSC-22 mRNA", "experiment": "TSC-22 mRNA expression level in kidneys of Zucker fatty rats (real-time quantitative RT-PCR)", "excerpt": "(§1) Male Zucker fatty rats (ZF rats, 18 weeks of age, Charles River Japan Inc.), which have hyperinsulinemia and spontaneously develop renal disease, were given oral administration of candesartan cilexetil (angiotensin II type 1 receptor antagonist) in suspension in 0.5% methylcellulose 100 cP once daily for 9 consecutive weeks. For a control group and a normal control group, male Zucker lean rats at the same weeks of age (ZL rats, Charles River Japan Inc.) were given oral administration of 0.5% methylcellulose 100 cP (vehicle) once daily for consecutive days. At 8 weeks of administration, 24-hour urine pooling was conducted, and urinary albumin excretion was measured using the A/G B Test Wako (Wako Pure Chemical Industries, Ltd.). At 9 weeks of administration, kidneys were collected and stored at −80° C. After the sample was disrupted, total RNA was extracted. A primer and a fluorescent probe were prepared on the basis of reported (ibidem) mRNA sequences, and various mRNA expression levels were measured by the real-time quantitative RT-PCR method using ABI PRISM7700 (Applied Biosystems)."}, "Zucker fatty rats": {"test_system": "Zucker fatty rats", "experiment": "Urinary albumin excretion in Zucker fatty rats (24-hour urine pooling, A/G B Test Wako)", "excerpt": "as §1"}, "TGF-β1 mRNA": {"test_system": "TGF-β1 mRNA", "experiment": "TGF-β1 mRNA expression level in kidneys of Zucker fatty rats (real-time quantitative RT-PCR)", "excerpt": "as §1"}, "[1]": {"details": "Zucker fatty rats, administration of the drug"}},
  "data": [
    {"smiles": "CCOc1nc2cccc(C(=O)OC(C)OC(=O)OC3CCCCC3)c2n1Cc1ccc(-c2ccccc2-c2nnn[nH]2)cc1", "note": "(stereo not drawn) [Candesartan cilexetil, candesartan cilexetil]", "values": [
      {"measurement": "increase in TSC-22 mRNA expression level in the kidneys (in words)", "setting": "TSC-22 mRNA; [1]", "result": "suppressed"},
      {"measurement": "mRNA expression level of TSC-22 in the kidneys (relative value with the expression level in the kidneys of Zucker lean rats as 1)", "setting": "TSC-22 mRNA; male ZF rats, oral once daily, kidneys collected at 9 weeks of administration, n = 8-9, Mean (ZF vehicle 2.4)", "result": 1.6},
      {"measurement": "increase in urinary albumin excretion (in words)", "setting": "Zucker fatty rats; [1]", "result": "suppressed"},
      {"measurement": "Urinary albumin excretion", "setting": "Zucker fatty rats; male ZF rats, oral once daily, at 8 weeks of administration, n = 8-9, Mean (ZF vehicle 401.5, ZL vehicle 48.5)", "result": 61.7, "unit": "mg/day"},
      {"measurement": "increase in TGF-β1 mRNA expression level in the kidneys (in words)", "setting": "TGF-β1 mRNA; [1]", "result": "suppressed"},
      {"measurement": "mRNA expression level of TGF-β1 in the kidneys (relative value with the expression level in the kidneys of Zucker lean rats as 1)", "setting": "TGF-β1 mRNA; male ZF rats, oral once daily, kidneys collected at 9 weeks of administration, n = 8-9, Mean (ZF vehicle 2.1)", "result": 1.2}
    ]}
  ]
}
